The results in this text go back to ChEMBL document CHEMBL3774349, “Thiazolo[4,5-d]pyrimidines as a privileged scaffold in drug discovery” (Eur J Med Chem, 2016).

One data set deals with Semliki Forest virus. Briefly: Antiviral activity against Semliki forest virus infected in mouse. It is filed as functional.
The next data set has as its system Human betaherpesvirus 5. Briefly: Antiviral activity against Human cytomegalovirus Towne infected in HFF cells after 2 hrs by plaque reduction assay. It is filed as functional, cell-based. As to conditions: Human betaherpesvirus 5, Towne.
Data set [1] can be described thus: Cytotoxicity against human KB cells assessed as cell growth inhibition by crystal violet staining based spectrophotometry. As to conditions: read-out: TC50 (the source's name).
A short description of data set [2]: Cytotoxicity against human MRC5 cells assessed as cell growth inhibition by aqueous non-Radioactivity Cell proliferation Assay. The class given is cell-based. As to conditions: read-out: TC50 (the source's name).
Data set [3] in a line: Cytotoxicity against monkey Vero cells assessed as cell growth inhibition by aqueous non-Radioactivity Cell proliferation Assay. The class given is cell-based. As to conditions: chlorocebus sabaeus, read-out: TC50 (the source's name).
Data set [4] deals with T1, Corticotropin-releasing factor receptor 1 (Homo sapiens) (UniProt P34998).
T1 sequence (whole entry): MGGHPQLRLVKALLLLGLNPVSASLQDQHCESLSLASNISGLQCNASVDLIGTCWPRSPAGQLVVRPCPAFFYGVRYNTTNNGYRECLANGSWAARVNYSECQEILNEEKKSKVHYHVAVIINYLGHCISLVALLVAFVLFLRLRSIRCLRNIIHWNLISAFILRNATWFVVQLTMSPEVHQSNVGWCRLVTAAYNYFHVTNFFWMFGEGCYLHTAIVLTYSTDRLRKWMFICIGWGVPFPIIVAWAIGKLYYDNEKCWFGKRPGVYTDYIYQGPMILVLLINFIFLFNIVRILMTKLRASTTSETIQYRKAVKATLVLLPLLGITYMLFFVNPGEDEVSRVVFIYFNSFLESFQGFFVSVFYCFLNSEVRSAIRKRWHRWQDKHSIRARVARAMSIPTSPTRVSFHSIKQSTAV
Briefly: Displacement of [125I]-Tyr0 sauvagine from human CRF1 receptor expressed in HEK293 cells membrane homogenates at 1000 nM for 120 mins by scintillation counting in the presence of antalarmin. The class given is cell membranes. In general terms: Loss of bound radioactivity is the signal in a displacement assay; it reports binding, not function.

`Nc1nc(=O)c2sc(=O)n([C@@H]3O[C@H](CO)[C@@H](O)[C@H]3O)c2[nH]1` [ISATORIBINE] came in with an Activity with Semliki Forest virus of 92%.

For orientation: IC50 means the midpoint of a concentration-inhibition curve. For the compound `CC(C)=CCn1c(=O)sc2c(=O)[nH]c(N)nc21`, the IC50 in the data set on Human betaherpesvirus 5 was 6.8 µM. Also, the CC50 in data set [1], in data set [2] and in data set [3] was 75 µM in each case.

What is called inhibition is the change of the read-out against control, counted positive when it falls. In the case of `CCCN(CC1CC1)c1nc(C)nc2c1SC(=C(C#N)C#N)N2c1ccc(C(C)C)cc1Br`, in data set [4], the inhibition is 25%.

Compound `CC/C=C/Cn1c(=O)sc2c(=O)[nH]c(N)nc21` gave an IC50 in the data set with Human betaherpesvirus 5 of 0.5 µM. Moreover, the CC50 in data set [1], in data set [2] and in data set [3] was 75 µM throughout.

Turning to `CCOC(=O)/C(C#N)=C1/Sc2c(N(CCOC)CCOC)nc(C)nc2N1c1ccc(C(C)C)cc1Br`, the inhibition in data set [4] was found to be 25%.
